# Values quoted from earlier work, collected in patent US8470863B2, “Derivatives and analogs of chroman as functionally selective ALPHA2C adrenoreceptor agonists” (Merck Sharp & Dohme, Corp., priority 2007, dated 2013).
# Test system: Coloboma mice
# Details: mice mutated to exhibit spontaneous hyperactivity; Bruno et al. 2006
compound,measurement,value
COC(=O)[C@@H]1[C@H]2C[C@H]3c4[nH]c5ccccc5c4CCN3C[C@@H]2CC[C@@H]1O [yohimbine],Effect on hyperactivity of Coloboma mice,ameliorated hyperactivity
